Entries after “also recorded” stand apart in the source; their conditions may differ.
Tests used:
[1] = system: human melanoma cell lines; experiment: CXCL10 and IFN-β release (ELISA) after STING agonist stimulation; format: cell-based
[2] = system: human melanoma cell lines; experiment: IRF3 phosphorylation by immunoblot after STING agonist stimulation; format: cell-based
Source text: Proteins were extracted with RIPA buffer (ThermoFisher Scientific) containing protease inhibitors (Thermo Scientific). Protein extracts from NK92, a natural killer cell line, was used as a positive control for the expression of STING and cGAS (Souza-Fonseca-Guimaraes F, et al. J Biol Chem. 2013 288:10715-21). Equal amounts of proteins were resolved on SDS-PAGE gels (Bio-Rad) and transferred to polyvinylidene fluoride (PVDF) membranes (Bio-Rad). After blocking with 5% non-fat dry milk, membranes were incubated with antibodies specific for STING, cGAS, p-IRF3, IRF3 (all from Cell Signaling) and β-actin (Sigma Aldrich). Following incubation with appropriate secondary antibodies, bands were visualized using an enhanced chemiluminescence detection system.

[3] = system: human melanoma cell lines (WM39, WM3629, 526-MEL) co-cultured with HLA-matched TIL; experiment: Co-culture assay of melanoma cells with HLA-matched TIL, cytokine release by ELISA
Protocol: TIL production of IFN-γ and ^51Cr release was assessed for cytotoxicity.
After 24 hours of incubation at 37° C. in a humidified CO2 incubator, the supernatant was harvested for detection of IFN-γ release using enzyme-linked immunosorbent assay (Human IFN-γ Quantikine ELISA Kit, R&D Systems). For the MHC class I blocking assay, melanoma cells were incubated with W6/32 (anti-HLA-A,B,C monoclonal antibody, Biolegend) at a final concentration of 50 μg/mL for 1 hour at 37° C. prior to the addition of TIL.

[4] = system: human melanoma cell lines (WM39, WM3629, 526-MEL) as targets, TIL 195 as effector cells; experiment: 51Cr release cytotoxicity assay, lysis of melanoma targets by TIL
Protocol: After 4 hours, supernatant was harvested and measured in Trilux (PerkinElmer). Each point represented the average of quadruplicate wells and percentage of specific lysis was calculated by: (experimental release—minimum release)/(maximum release-minimum release)×100.

[5] = system: human melanoma cell lines; experiment: Flow cytometry of MHC class I (HLA-A.B.C) surface expression; format: cell-based
Protocol: DAPI (Sigma-Aldrich) was used as a viability dye. Sample acquisition was performed on an LSR II flow cytometer (BD Biosciences), and the data were analyzed using FlowJo software (Tree Star).

[6] = system: melanoma cell lines lacking STING; experiment: CXCL-10 induction in 5AZADC-treated melanoma cells after STING agonist stimulation; details: 5AZADC-treated cell lines lacking STING, then stimulated with the STING agonist 2′3′-cGAMP
[7] = system: melanoma cell lines lacking STING; experiment: STING/cGAS expression by immunoblot after demethylating agent treatment
Source text: STING and cGAS expression were examined in a panel of human melanoma cell lines by immunoblot.

[8] = WM9 and WM39 cell lines, 2′3′-cGAMP stimulation

Nc1nc2c(ncn2[C@@H]2O[C@@H]3COP(=O)(O)O[C@H]4[C@@H](O)[C@H](n5cnc6c(N)ncnc65)O[C@@H]4COP(=O)(O)O[C@@H]2[C@@H]3O)c(=O)[nH]1 [2′3′-cGAMP, 2′3′-cyclic-GMP-AMP]
response to 2′3′-cGAMP stimulation (p-IRF3, CXCL10, IFN-β) ([1]; 526-MEL (HLA-A2) cell line): did not respond | CXCL10 induction in cell culture supernatants [1, 8]: detectable levels | IFN-β induction in cell culture supernatants [1, 8]: detectable levels | phosphorylation of IRF3 ([2]; 5 STING-positive cell lines (WM164, WM9, WM39, A375, WM1366), 2′3′-cGAMP 10 μg/ml with Lipofectamine, 4 h): 4 of 5 STING-positive cell lines | phosphorylation of IRF3 ([2]; WM2032 (STING-negative) cell line, 2′3′-cGAMP stimulated): not detected | IFN-γ secretion ([3]; 526-MEL / TIL 19 co-culture): did not induce any increased IFN-γ secretion | IFN-γ release ([3]; 526-MEL / TIL 195 co-cultures): no increase in IFN-γ release | increase in IFN-γ secretion ([3]; Example 2, STING-positive cell lines responding strongly, cultured with HLA-matched TILs, p<0.01): ≤ 15 fold | IFN-γ secretion by TIL ([3]; MART-1 pulsed WM39 / TIL 195 co-culture, p<0.001): significantly increased | IFN-γ production by TIL ([3]; MART-1 pulsed WM39 with two additional HLA-A2 TIL, p<0.01 vs untreated co-cultures): higher levels of IFN-γ production | IFN-γ release, higher than the untreated group ([3]; WM39 / TIL 19 co-cultures, p<0.001): 24 fold | higher IFN-γ release ([3]; WM39 / TIL 195 and sh-control / TIL 195 co-cultures, P<0.05): more than 25 fold | IFN-β in co-culture supernatants ([3]; WM39 / TIL 195 co-culture groups with 2′3′-cGAMP): Induction of IFN-β | IFN-γ secretion by TIL ([3]; WM39 / TIL 195 co-culture, with vs without 2′3′-cGAMP): significantly enhanced | IFN-γ release ([3]; WM3629 / TIL 195 co-cultures, p<0.01): increased | IFN-β induction ([3]; control group containing TIL with 2′3′-cGAMP, no tumor cells): not observed | IFN-γ induction ([3]; sh-STING (STING knockdown WM39) / TIL 195 co-cultures): no increase in IFN-γ induction | lysis by TIL 195 (lytic units) ([4]; 526-MEL cells): did not induce any increase in lysis | specific lysis by TIL 195 ([4]; 526-MEL targets, defective in STING signaling): did not alter their specific lysis | augmentation of TIL cytotoxicity ([4]; Example 2, STING-responsive cell lines with HLA-matched TILs, p<0.05): > 2 fold | increase in lytic potential of TIL 195 (lytic units) ([4]; WM39 and MART-1-pulsed WM39 cells vs their controls): > 10 fold | increase in lysis by TIL 195 ([4]; WM39 and MART-1 pulsed WM39 targets, p<0.05): > 2 fold | cytolytic activity of TIL 195 ([4]; WM39 and sh-control targets): increased cytolytic activity | cytotoxicity of the STING agonist alone ([4]; WM39 target cells with or without 2′3′-cGAMP in the absence of TIL): did not result in any major cytotoxicity | lysis by TIL 195 (lytic units) ([4]; WM3629 cells): greater lysis | cytotoxicity (lysis by TIL 195) ([4]; WM3629 targets, p<0.05 vs controls): Increased | cytolytic activity of TIL 195 ([4]; sh-STING (STING knockdown WM39) targets): complete blockade of this response | expression of MHC class I ([5]; 1205Lu, WM266-4, WM2032 and 526-MEL cell lines with impaired STING signaling): no significant changes | MHC-I/HLA-A.B.C expression ([5]; Example 1, human melanoma cell lines (FIG. 14)): upregulation of MHC I | higher surface expression of MHC class I ([5]; WM39 and sh-control cells, p<0.01): more than 2.5 fold | surface expression of MHC class I ([5]; sh-STING (STING knockdown WM39) cells): did not cause any increase in MHC class I

Nc1ncn([C@H]2C[C@H](O)[C@@H](CO)O2)c(=O)n1 [5AZADC, 5-aza-2′-deoxycytidine]
CXCL-10 induction [6]: induction of CXCL-10; also recorded: production of CXCL-10; also recorded: STING-dependent CXCL-10 induction | STING expression ([7]; 5AZADC-treated melanoma cell lines lacking STING): Partial induction of STING expression; also recorded: reconstitution of STING expression | STING and cGAS expression ([7]; A375, G361, MeWO, SK-MEL-5 and other human melanoma cell lines with and without 5AZADC (FIG. 7)): partially recapitulated

— US12584919B2, “Enhancing anti-tumor response in melanoma cells with defective sting signaling” (H. Lee Moffitt Cancer Center and Research Institute, Inc., priority 2018, dated 2026)
